Reference: PMC3399817 (PLoS ONE, 2012)

Columns and labels:
Experiment in all cases: KINOMEscan
Assay type in all cases: binding
NIM1 = biological target: T1, NIM1 (Homo sapiens, UniProt Q8IY84); conditions: NIM1, 1 uM
T1 construct: purchased Ambit KINOMEscan (DiscoverX)
Procedure: (§1) First, we used Ambit's KINOMEscan™ technology to identify those kinases that are inhibited for substrate binding by the compounds, all assayed at 1 μM. Second, we used Invitrogen's SelectScreen® Biochemical Kinase Profiling Service to determine the in vitro IC50s for the compounds against specific kinases.

MYO3B = biological target: T2, MYO3B (Homo sapiens, UniProt Q8WXR4); conditions: 1 uM
T2 construct: purchased Ambit KINOMEscan (DiscoverX)
Procedure: as §1

PIK3C2B = biological target: T3, PIK3C2B (Homo sapiens, UniProt O00750); conditions: 1 uM
T3 construct: purchased Ambit KINOMEscan (DiscoverX)
Procedure: as §1

PKMYT1 = biological target: T4, PKMYT1 (Homo sapiens, UniProt Q99640); conditions: PKMYT1, 1 uM
T4 construct: purchased Ambit KINOMEscan (DiscoverX)
Procedure: as §1

TEC = biological target: T5, TEC (Homo sapiens, UniProt P42680); conditions: 1 uM
T5 construct: purchased Ambit KINOMEscan (DiscoverX)
Procedure: as §1

KIT(V559D) = biological target: T6, KIT(V559D) (Homo sapiens, UniProt P10721, V559D); conditions: 1 uM
T6 construct: purchased Ambit KINOMEscan (DiscoverX)
Procedure: as §1

PAK3 = biological target: T7, PAK3 (Homo sapiens, UniProt O75914); conditions: PAK3, 1 uM
T7 construct: purchased Ambit KINOMEscan (DiscoverX)
Procedure: as §1

FGFR1 = biological target: T8, FGFR1 (Homo sapiens, UniProt P11362); conditions: FGFR1, 1 uM
T8 construct: purchased Ambit KINOMEscan (DiscoverX)
Procedure: as §1

PIK3C2G = biological target: T9, PIK3C2G (Homo sapiens, UniProt O75747); conditions: 1 uM
T9 construct: purchased Ambit KINOMEscan (DiscoverX)
Procedure: as §1

HPK1 = biological target: T10, HPK1 (Homo sapiens, UniProt Q92918); conditions: HPK1, 1 uM
T10 construct: purchased Ambit KINOMEscan (DiscoverX)
Procedure: as §1

PIP5K2B = biological target: T11, PIP5K2B (Homo sapiens, UniProt P78356); conditions: 1 uM
T11 construct: purchased Ambit KINOMEscan (DiscoverX)
Procedure: as §1

MEK1 = biological target: T12, MEK1 (Homo sapiens, UniProt Q02750); conditions: MEK1, 1 uM
T12 construct: purchased Ambit KINOMEscan (DiscoverX)
Procedure: as §1

LYN = biological target: T13, LYN (Homo sapiens, UniProt P07948); conditions: 1 uM
T13 construct: purchased Ambit KINOMEscan (DiscoverX)
Procedure: as §1

MYLK = biological target: T14, MYLK (Homo sapiens, UniProt Q15746); conditions: 1 uM
T14 construct: purchased Ambit KINOMEscan (DiscoverX)
Procedure: as §1

ERK1 = biological target: T15, ERK1 (Homo sapiens, UniProt P27361); conditions: ERK1, 1 uM
T15 construct: purchased Ambit KINOMEscan (DiscoverX)
Procedure: as §1

MAP4K4 = biological target: T16, MAP4K4 (Homo sapiens, UniProt O95819); conditions: MAP4K4, 1 uM
T16 construct: purchased Ambit KINOMEscan (DiscoverX)
Procedure: as §1

CAMK4 = biological target: T17, CAMK4 (Homo sapiens, UniProt Q16566); conditions: CAMK4, 1 uM
T17 construct: purchased Ambit KINOMEscan (DiscoverX)
Procedure: as §1

DCAMKL3 = biological target: T18, DCAMKL3 (Homo sapiens, UniProt Q9C098); conditions: DCAMKL3, 1 uM
T18 construct: purchased Ambit KINOMEscan (DiscoverX)
Procedure: as §1

ERN1 = biological target: T19, ERN1 (Homo sapiens, UniProt O75460); conditions: ERN1, 1 uM
T19 construct: purchased Ambit KINOMEscan (DiscoverX)
Procedure: as §1

CAMK1G = biological target: T20, CAMK1G (Homo sapiens, UniProt Q96NX5); conditions: 1 uM
T20 construct: purchased Ambit KINOMEscan (DiscoverX)
Procedure: as §1

ACVRL1 = biological target: T21, ACVRL1 (Homo sapiens, UniProt P37023); conditions: ACVRL1, 1 uM
T21 construct: purchased Ambit KINOMEscan (DiscoverX)
Procedure: as §1

[1] = biological target: T22, TYK2(JH2domain-pseudokinase) (Homo sapiens, UniProt P29597); conditions: 1 uM
T22 construct: TYK2(JH2domain-pseudokinase); purchased Ambit KINOMEscan (DiscoverX)
Procedure: as §1

TNK2 = biological target: T23, TNK2 (Homo sapiens, UniProt Q07912); conditions: TNK2, 1 uM
T23 construct: purchased Ambit KINOMEscan (DiscoverX)
Procedure: as §1

TNNI3K = biological target: T24, TNNI3K (Homo sapiens, UniProt Q59H18); conditions: 1 uM
T24 construct: purchased Ambit KINOMEscan (DiscoverX)
Procedure: as §1

[2] = biological target: T25, JAK1(JH2domain-pseudokinase) (Homo sapiens, UniProt P23458); conditions: 1 uM
T25 construct: JAK1(JH2domain-pseudokinase); purchased Ambit KINOMEscan (DiscoverX)
Procedure: as §1

PAK1 = biological target: T26, PAK1 (Homo sapiens, UniProt Q13153); conditions: PAK1, 1 uM
T26 construct: purchased Ambit KINOMEscan (DiscoverX)
Procedure: as §1

SRPK3 = biological target: T27, SRPK3 (Homo sapiens, UniProt Q9UPE1); conditions: SRPK3, 1 uM
T27 construct: purchased Ambit KINOMEscan (DiscoverX)
Procedure: as §1

PCTK1 = biological target: T28, PCTK1 (Homo sapiens, UniProt Q00536); conditions: PCTK1, 1 uM
T28 construct: purchased Ambit KINOMEscan (DiscoverX)
Procedure: as §1

TBK1 = biological target: T29, TBK1 (Homo sapiens, UniProt Q9UHD2); conditions: TBK1, 1 uM
T29 construct: purchased Ambit KINOMEscan (DiscoverX)
Procedure: as §1

TIE1 = biological target: T30, TIE1 (Homo sapiens, UniProt P35590); conditions: TIE1, 1 uM
T30 construct: purchased Ambit KINOMEscan (DiscoverX)
Procedure: as §1

IRAK3 = biological target: T31, IRAK3 (Homo sapiens, UniProt Q9Y616); conditions: IRAK3, 1 uM
T31 construct: purchased Ambit KINOMEscan (DiscoverX)
Procedure: as §1

CSNK1G2 = biological target: T32, CSNK1G2 (Homo sapiens, UniProt P78368); conditions: CSNK1G2, 1 uM
T32 construct: purchased Ambit KINOMEscan (DiscoverX)
Procedure: as §1

ERBB4 = biological target: T33, ERBB4 (Homo sapiens, UniProt Q15303); conditions: ERBB4, 1 uM
T33 construct: purchased Ambit KINOMEscan (DiscoverX)
Procedure: as §1

AURKC = biological target: T34, AURKC (Homo sapiens, UniProt Q9UQB9); conditions: 1 uM
T34 construct: purchased Ambit KINOMEscan (DiscoverX)
Procedure: as §1

INSRR = biological target: T35, INSRR (Homo sapiens, UniProt P14616); conditions: 1 uM
T35 construct: purchased Ambit KINOMEscan (DiscoverX)
Procedure: as §1

MERTK = biological target: T36, MERTK (Homo sapiens, UniProt Q12866); conditions: 1 uM
T36 construct: purchased Ambit KINOMEscan (DiscoverX)
Procedure: as §1

AKT3 = biological target: T37, AKT3 (Homo sapiens, UniProt Q9Y243); conditions: AKT3, 1 uM
T37 construct: purchased Ambit KINOMEscan (DiscoverX)
Procedure: as §1

ACVR1B = biological target: T38, ACVR1B (Homo sapiens, UniProt P36896); conditions: 1 uM
T38 construct: purchased Ambit KINOMEscan (DiscoverX)
Procedure: as §1

CSNK1E = biological target: T39, CSNK1E (Homo sapiens, UniProt P49674); conditions: 1 uM
T39 construct: purchased Ambit KINOMEscan (DiscoverX)
Procedure: as §1

[3] = biological target: T40, ABL1(E255K)-phosphorylated (Homo sapiens, UniProt P00519, E255K); conditions: 1 uM
T40 construct: purchased Ambit KINOMEscan (DiscoverX)
Procedure: as §1

T22 sequence (P29597 556-888 limits assumed): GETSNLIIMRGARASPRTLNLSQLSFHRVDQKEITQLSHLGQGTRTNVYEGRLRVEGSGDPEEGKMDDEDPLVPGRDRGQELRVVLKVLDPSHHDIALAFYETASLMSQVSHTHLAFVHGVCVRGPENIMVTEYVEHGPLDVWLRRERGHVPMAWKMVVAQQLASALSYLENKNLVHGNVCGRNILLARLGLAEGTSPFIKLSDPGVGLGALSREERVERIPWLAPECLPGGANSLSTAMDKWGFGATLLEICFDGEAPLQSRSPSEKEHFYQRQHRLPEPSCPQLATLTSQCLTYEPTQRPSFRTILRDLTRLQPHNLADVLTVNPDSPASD
T11 sequence (P78356 whole entry): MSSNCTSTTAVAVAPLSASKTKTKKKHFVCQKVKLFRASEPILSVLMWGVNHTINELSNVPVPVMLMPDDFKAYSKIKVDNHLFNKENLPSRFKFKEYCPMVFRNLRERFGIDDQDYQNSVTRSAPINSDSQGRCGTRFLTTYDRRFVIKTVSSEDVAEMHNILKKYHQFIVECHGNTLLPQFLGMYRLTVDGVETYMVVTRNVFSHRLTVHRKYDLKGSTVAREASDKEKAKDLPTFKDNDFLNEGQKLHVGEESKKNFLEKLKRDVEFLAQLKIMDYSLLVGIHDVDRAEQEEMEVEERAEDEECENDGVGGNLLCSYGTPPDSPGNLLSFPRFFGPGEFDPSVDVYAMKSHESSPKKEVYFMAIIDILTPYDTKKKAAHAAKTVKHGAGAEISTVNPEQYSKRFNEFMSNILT
T35 sequence (P14616 27-1297): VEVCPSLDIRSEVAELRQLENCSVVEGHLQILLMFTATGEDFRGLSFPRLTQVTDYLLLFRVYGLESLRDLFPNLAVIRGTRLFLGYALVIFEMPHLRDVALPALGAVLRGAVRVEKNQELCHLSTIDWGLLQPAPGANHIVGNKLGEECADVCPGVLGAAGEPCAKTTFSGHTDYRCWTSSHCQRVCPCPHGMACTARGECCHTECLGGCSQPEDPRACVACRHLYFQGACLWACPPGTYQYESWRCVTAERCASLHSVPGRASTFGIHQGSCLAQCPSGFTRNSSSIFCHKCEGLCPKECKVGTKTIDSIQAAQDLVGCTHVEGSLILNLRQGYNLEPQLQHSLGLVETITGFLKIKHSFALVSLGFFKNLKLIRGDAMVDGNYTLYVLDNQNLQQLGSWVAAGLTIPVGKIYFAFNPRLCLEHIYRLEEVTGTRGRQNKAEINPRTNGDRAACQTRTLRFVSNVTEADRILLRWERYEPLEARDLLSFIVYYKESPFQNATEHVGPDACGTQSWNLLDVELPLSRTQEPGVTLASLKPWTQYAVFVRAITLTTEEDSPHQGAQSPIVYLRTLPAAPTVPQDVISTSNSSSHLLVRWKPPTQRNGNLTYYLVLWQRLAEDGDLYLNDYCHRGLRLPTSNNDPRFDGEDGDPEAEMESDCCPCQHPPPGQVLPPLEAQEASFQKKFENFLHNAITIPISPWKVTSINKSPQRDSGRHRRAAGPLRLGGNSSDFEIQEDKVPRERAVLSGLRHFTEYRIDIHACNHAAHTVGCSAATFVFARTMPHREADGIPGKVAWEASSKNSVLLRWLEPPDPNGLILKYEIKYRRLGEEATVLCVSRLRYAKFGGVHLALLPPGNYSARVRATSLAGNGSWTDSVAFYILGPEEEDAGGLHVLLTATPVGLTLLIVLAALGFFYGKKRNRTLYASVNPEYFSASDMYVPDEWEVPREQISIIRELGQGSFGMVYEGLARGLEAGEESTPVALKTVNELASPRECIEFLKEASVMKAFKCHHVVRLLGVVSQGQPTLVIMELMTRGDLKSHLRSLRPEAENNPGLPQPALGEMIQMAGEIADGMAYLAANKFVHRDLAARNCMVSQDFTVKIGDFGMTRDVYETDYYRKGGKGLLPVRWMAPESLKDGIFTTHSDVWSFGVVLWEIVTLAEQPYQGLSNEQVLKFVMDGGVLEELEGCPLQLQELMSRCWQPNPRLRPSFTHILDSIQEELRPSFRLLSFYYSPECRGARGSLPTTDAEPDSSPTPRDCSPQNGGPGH
T18 sequence (Q9C098 whole entry): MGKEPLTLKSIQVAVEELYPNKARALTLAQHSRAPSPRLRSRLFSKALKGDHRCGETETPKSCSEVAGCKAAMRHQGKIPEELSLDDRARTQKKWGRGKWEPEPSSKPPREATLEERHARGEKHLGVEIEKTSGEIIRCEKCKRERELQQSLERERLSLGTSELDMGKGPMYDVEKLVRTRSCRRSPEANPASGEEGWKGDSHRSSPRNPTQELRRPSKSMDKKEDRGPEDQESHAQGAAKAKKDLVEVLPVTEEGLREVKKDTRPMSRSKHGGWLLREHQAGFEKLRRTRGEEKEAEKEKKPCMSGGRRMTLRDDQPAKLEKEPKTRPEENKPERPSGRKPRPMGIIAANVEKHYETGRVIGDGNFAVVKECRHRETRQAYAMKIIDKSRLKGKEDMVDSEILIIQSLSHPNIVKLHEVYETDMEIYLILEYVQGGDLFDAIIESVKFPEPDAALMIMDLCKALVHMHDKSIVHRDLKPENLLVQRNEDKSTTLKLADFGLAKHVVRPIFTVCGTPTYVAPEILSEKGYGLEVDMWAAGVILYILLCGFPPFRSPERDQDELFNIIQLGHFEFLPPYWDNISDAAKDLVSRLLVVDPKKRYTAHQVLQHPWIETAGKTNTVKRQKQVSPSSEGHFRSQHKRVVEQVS
T27 sequence (Q9UPE1 whole entry): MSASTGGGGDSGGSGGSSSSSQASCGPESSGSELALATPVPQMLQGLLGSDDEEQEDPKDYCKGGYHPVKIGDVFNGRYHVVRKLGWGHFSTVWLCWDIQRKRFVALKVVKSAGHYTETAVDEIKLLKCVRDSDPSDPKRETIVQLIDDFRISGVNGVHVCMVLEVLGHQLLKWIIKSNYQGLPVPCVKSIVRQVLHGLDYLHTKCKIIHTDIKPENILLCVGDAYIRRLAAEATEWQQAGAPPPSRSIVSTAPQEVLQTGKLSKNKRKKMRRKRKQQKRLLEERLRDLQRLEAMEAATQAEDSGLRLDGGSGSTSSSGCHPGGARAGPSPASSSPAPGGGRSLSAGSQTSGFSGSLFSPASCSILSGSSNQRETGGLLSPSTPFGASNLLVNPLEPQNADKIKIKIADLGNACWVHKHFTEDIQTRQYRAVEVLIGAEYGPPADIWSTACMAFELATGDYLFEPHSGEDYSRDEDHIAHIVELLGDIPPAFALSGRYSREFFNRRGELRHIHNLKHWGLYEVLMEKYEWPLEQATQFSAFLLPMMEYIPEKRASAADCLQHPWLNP
T24 sequence (Q59H18 whole entry): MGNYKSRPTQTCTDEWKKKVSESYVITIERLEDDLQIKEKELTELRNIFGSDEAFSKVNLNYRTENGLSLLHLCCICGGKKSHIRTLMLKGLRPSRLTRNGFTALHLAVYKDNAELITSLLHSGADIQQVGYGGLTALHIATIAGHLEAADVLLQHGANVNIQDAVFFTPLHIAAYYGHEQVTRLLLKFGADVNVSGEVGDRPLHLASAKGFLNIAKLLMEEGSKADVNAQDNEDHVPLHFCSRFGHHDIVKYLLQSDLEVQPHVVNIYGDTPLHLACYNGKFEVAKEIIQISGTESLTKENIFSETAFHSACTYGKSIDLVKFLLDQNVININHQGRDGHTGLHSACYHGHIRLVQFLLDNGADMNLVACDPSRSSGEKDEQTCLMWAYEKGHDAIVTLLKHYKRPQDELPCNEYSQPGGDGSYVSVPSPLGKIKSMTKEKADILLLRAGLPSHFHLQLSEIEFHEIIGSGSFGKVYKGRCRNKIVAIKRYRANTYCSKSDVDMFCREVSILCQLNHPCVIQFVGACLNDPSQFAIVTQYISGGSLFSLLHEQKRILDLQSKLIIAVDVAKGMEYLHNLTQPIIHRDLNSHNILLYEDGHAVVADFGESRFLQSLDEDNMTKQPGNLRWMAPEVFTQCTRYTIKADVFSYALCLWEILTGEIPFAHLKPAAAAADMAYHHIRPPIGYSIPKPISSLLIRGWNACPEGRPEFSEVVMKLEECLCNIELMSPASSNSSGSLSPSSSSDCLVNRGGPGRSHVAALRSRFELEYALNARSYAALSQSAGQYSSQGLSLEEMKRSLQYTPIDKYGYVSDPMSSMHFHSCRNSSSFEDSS
T38 sequence (P36896 24-505): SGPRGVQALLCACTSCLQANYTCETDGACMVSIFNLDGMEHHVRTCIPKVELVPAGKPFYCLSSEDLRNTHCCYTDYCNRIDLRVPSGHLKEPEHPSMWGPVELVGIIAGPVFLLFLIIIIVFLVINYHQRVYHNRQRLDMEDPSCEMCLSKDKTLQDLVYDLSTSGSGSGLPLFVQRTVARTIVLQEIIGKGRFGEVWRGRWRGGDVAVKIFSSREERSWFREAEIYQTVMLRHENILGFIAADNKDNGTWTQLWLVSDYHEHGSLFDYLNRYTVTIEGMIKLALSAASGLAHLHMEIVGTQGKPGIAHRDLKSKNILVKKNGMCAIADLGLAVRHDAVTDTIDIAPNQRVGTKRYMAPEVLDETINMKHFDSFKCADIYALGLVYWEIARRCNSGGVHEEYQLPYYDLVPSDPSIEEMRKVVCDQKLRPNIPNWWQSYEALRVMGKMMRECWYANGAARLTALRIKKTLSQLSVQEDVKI
T34 sequence (Q9UQB9 whole entry): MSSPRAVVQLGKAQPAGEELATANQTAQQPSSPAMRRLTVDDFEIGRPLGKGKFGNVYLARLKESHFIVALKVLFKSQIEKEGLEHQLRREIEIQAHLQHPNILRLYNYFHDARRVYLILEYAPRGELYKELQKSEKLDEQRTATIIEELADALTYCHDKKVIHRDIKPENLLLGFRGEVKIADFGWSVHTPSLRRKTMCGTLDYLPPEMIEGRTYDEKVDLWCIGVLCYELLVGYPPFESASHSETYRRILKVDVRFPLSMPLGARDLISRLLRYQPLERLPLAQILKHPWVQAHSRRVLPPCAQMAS

SMILES	% binding compared to no inhibitor control (NIM1)	% binding compared to no inhibitor control (MYO3B)	% binding compared to no inhibitor control (PIK3C2B)	% binding compared to no inhibitor control (PKMYT1)	% binding compared to no inhibitor control (TEC)	% binding compared to no inhibitor control (KIT(V559D))	% binding compared to no inhibitor control (PAK3)	% binding compared to no inhibitor control (FGFR1)	% binding compared to no inhibitor control (PIK3C2G)	% binding compared to no inhibitor control (HPK1)	% binding compared to no inhibitor control (PIP5K2B)	% binding compared to no inhibitor control (MEK1)	% binding compared to no inhibitor control (LYN)	% binding compared to no inhibitor control (MYLK)	% binding compared to no inhibitor control (ERK1)	% binding compared to no inhibitor control (MAP4K4)	% binding compared to no inhibitor control (CAMK4)	% binding compared to no inhibitor control (DCAMKL3)	% binding compared to no inhibitor control (ERN1)	% binding compared to no inhibitor control (CAMK1G)	also measured
COc1ccccc1Nc1nc(-c2ccc(OC)c(OC)c2)cc2nccn12 [BAY derivative 6]	100%	100%	100%	95%	100%	54%	100%	100%	100%	100%	100%	100%	96%	100%	100%	86%	100%	100%	100%	98%	% binding compared to no inhibitor control (ACVRL1): 100%; % binding compared to no inhibitor control [1]: 37%; % binding compared to no inhibitor control (TNK2): 53%; % binding compared to no inhibitor control (TNNI3K): 100%; % binding compared to no inhibitor control [2]: 1.2%; % binding compared to no inhibitor control (PAK1): 83%; % binding compared to no inhibitor control (SRPK3): 100%; % binding compared to no inhibitor control (PCTK1): 100%; % binding compared to no inhibitor control (TBK1): 100%; % binding compared to no inhibitor control (TIE1): 94%; % binding compared to no inhibitor control (IRAK3): 57%; % binding compared to no inhibitor control (CSNK1G2): 100%; % binding compared to no inhibitor control (ERBB4): 100%; % binding compared to no inhibitor control (AURKC): 100%; % binding compared to no inhibitor control (INSRR): 91%; % binding compared to no inhibitor control (MERTK): 100%; % binding compared to no inhibitor control (AKT3): 100%; % binding compared to no inhibitor control (ACVR1B): 100%; % binding compared to no inhibitor control (CSNK1E): 100%; % binding compared to no inhibitor control [3]: 60%
COc1ccc(-c2cc3nccn3c(Nc3ncccc3C(N)=O)n2)cc1OC.Cl.Cl [BAY61-3606, 2-[7-(3,4-dimethoxyphenyl)-imidazo [1,2-c]pyrimidin-5-ylamino] nicotinamide dihydrochloride, reference compound]	88%	72%	60%	88%	100%	3%	92%	93%	23%	43%	100%	100%	100%	55%	100%	94%	100%	100%	72%	82%	% binding compared to no inhibitor control (ACVRL1): 100%; % binding compared to no inhibitor control [1]: 9.2%; % binding compared to no inhibitor control (TNK2): 96%; % binding compared to no inhibitor control (TNNI3K): 100%; % binding compared to no inhibitor control [2]: 80%; % binding compared to no inhibitor control (PAK1): 94%; % binding compared to no inhibitor control (SRPK3): 74%; % binding compared to no inhibitor control (PCTK1): 86%; % binding compared to no inhibitor control (TBK1): 47%; % binding compared to no inhibitor control (TIE1): 100%; % binding compared to no inhibitor control (IRAK3): 16%; % binding compared to no inhibitor control (CSNK1G2): 100%; % binding compared to no inhibitor control (ERBB4): 90%; % binding compared to no inhibitor control (AURKC): 92%; % binding compared to no inhibitor control (INSRR): 80%; % binding compared to no inhibitor control (MERTK): 78%; % binding compared to no inhibitor control (AKT3): 90%; % binding compared to no inhibitor control (ACVR1B): 100%; % binding compared to no inhibitor control (CSNK1E): 94%; % binding compared to no inhibitor control [3]: 100%
